Reference: PubChem BioAssay (NCI)
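The compound was tested at five concentrations on cells cultured in 96-well plates, with a 48-hour exposure period. The concentration for 50% growth inhibition is given as GI50. The concentration for full growth arrest is given as TGI.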

Key:
Assay in all cases: inhibition of tumour cell growth, NCI panel, 48 h
[1] = system: A549 NSCLC
[2] = system: COLO 205 colon
[3] = system: HT29 colon
[4] = system: LOX IMVI melanoma
[5] = system: MOLT-4 leukemia
[6] = system: PC-3 prostate
[7] = system: RPMI-8226 leukemia
[8] = system: SK-MEL-5 melanoma
[9] = system: UACC-62 melanoma
[10] = system: ACHN renal
[11] = system: SF-539 CNS

Row | Structure (SMILES) | TGI [1] [µM] | TGI [2] [µM] | TGI [3] [µM] | TGI [4] [µM] | TGI [5] [µM] | GI50 [6] [µM] | TGI [6] [µM] | TGI [7] [µM] | GI50 [8] [µM] | TGI [8] [µM] | TGI [9] [µM] | TGI [10] [µM] | TGI [11] [µM]
1 | Cc1ccc2c(=O)cc(-c3sc4ccccc4c3C)[nH]c2n1 | 85.6 | 65.8 | 78.1 | 46.7 | 69.7 | 33.4 | > 100 | 38.1 | 14.9 | 28.2 | 36.3 |  | 
2 | N#Cc1nc(COCCOCc2ccc(F)cc2)oc1N | > 100 | > 100 | > 100 | > 100 | > 100 |  | > 100 | > 100 |  | > 100 | > 100 | > 100 | > 100
3 | FC1=C2CCCCCC2SC1(F)F (centres undefined) | > 100 | 39.2 | > 100 | 31.4 | 44.1 |  | > 100 | 84.9 |  | > 100 | > 100 | 79.3 | 
4 | CC1=C(C(=O)OC(C)C)C(c2ccccc2C(F)(F)F)C(C(=O)OC(CO[N+](=O)[O-])CO[N+](=O)[O-])=C(C)N1 (centres undefined) | 33 | 63.5 | 26.3 | 21.1 | 9.79 |  | 12.2 | > 100 |  | 11.4 | 20.1 | 22.1 | 23.2
5 | Cc1ccc(S(=O)(=O)c2c(N)n(CCN(C)C)c3nc4ccccc4nc23)cc1 | > 100 | > 100 | > 100 |  | > 100 |  |  | > 100 |  | > 100 |  | > 100 | > 100
6 | Cc1c(C)c(S(=O)(=O)N(CCCCCON)OCCCN)c(C)c2c1OC(C)(C)CC2 | 26.1 | 10.3 | 22.2 | 22.5 | 30 |  | 26.4 | 32 |  | 29.5 | 27.4 | 30 | 28.5
7 | N#CCCN(CCN(CCC#N)C(=O)Nc1ccccc1)C(=O)Nc1ccccc1 | > 100 | > 100 | > 100 | > 100 | > 100 |  | > 100 | > 100 |  | > 100 | > 100 | > 100 | 
8 | CC1(C)O[C@@H](CBr)C[C@H](C[C@H]2C[C@@H](O)C[C@@H](CCOCc3ccccc3)O2)O1 | 75.7 | 54.4 |  | 71.8 | > 100 |  | 39 | 97 |  | > 100 | 34.4 | 57.4 | 
9 | Cc1ccccc1N=NC(C(=O)c1ccccc1)C(=O)c1ccccc1 | > 100 | > 100 | > 100 |  | 74.3 |  |  | 60.9 |  | 55.9 | 59.7 | > 100 | 81.8
10 | Cc1cc(Cl)ccc1C1OC(=O)c2c1ccc1ccccc21 (centres undefined) | > 100 | > 100 | > 100 | > 100 | > 100 |  |  | > 100 |  | > 100 | > 100 | > 100 | > 100
11 | C=CCn1c(-c2ccc(-c3cs/c(=N\N=O)n3CC=C)cc2)cs/c1=N\N=O | > 100 | > 100 | > 100 | > 100 | > 100 |  | > 100 |  |  | > 100 | > 100 | > 100 | > 100
12 | C[C@]12CC[C@H](O)CC1=CC[C@@H]1C2CC[C@]2(C)Nc3c(cnn3-c3ccc(F)cc3)CC12 (some centres undefined) | > 100 |  | > 100 | > 100 | > 100 |  | > 100 |  |  | > 100 | > 100 | > 100 | 4.44
13 | OC(C/C=N/Nc1ccccc1)(C(F)(F)Cl)C(F)(F)Cl | > 10 | > 10 | > 10 | > 10 |  |  | > 10 |  |  | > 10 | > 10 | > 10 | > 10
14 | CC1(C)[C@H]2Cc3cc(-c4cc5c(cn4)[C@@H]4C[C@H]([C@@H]5[C@@H]5c6cc(-c7cc8c(cn7)[C@@H]7C[C@H](C8)C7(C)C)ncc6[C@@H]6C[C@H]5C6(C)C)C4(C)C)ncc3[C@@H]1C2 | > 100 | > 100 | > 100 | > 100 | > 100 |  | > 100 | > 100 |  | > 100 | > 100 | > 100 | 
15 | CN(C)Cc1cc(C(C)(C)C)cc(C2CCCCC2)c1O | 26.5 | 27.2 | 13.5 | 28.5 | 22.6 |  | 26.4 |  |  | 27.4 | 29.8 | 28.9 | 22.8
16 | COc1ccc(N=[N+]([O-])c2ccc(OC)cc2)cc1 | > 100 | > 100 | > 100 |  | > 100 |  | > 100 | > 100 |  | > 100 | > 100 | > 100 | 
17 | Cc1cc(N(CCC#N)CCC#N)ccc1C=Nc1ccc(C(=O)NN2C(=O)/C(=C/c3ccc(N(CCC#N)CCC#N)cc3)N=C2c2cc([N+](=O)[O-])ccc2Cl)cc1 | > 100 | > 100 | > 100 | > 100 |  |  |  | > 100 |  | > 100 | > 100 | > 100 | > 100
18 | COc1ccccc1CNC(=O)[C@H](Cc1ccc(O)cn1)NC(C)=O | > 100 | > 100 | > 100 | > 100 |  |  | > 100 | > 100 |  | > 100 | > 100 | > 100 | > 100
19 | CC(CCCOC(c1ccccc1)(c1ccccc1)c1ccccc1)OC(=O)Nc1ccccc1 (centres undefined) | 23.2 | 32.3 | 25.8 | 25.3 | 24 |  |  | 42.1 |  | 27.1 | 25.5 | 26.5 | 31.7
20 | O=c1ccn(C2OC(CN(O)CCC3C(CO)OC(n4ccc(=O)[nH]c4=O)C3O)C(O)C2O)c(=O)[nH]1 (centres undefined) | > 100 | > 100 | > 100 |  | > 100 |  | > 100 | > 100 |  | > 100 | > 100 | > 100 | 
21 | COP(=O)(OC)/C(=C\c1cn(C(c2ccccc2)(c2ccccc2)c2ccccc2)cn1)NC(C)=O | > 100 | > 100 | > 100 | > 100 | > 100 |  | > 100 |  |  |  | > 100 | > 100 | > 100
